From patent US20240060138A1, “BREAST CANCER-RESPONSE PREDICTION SUBTYPES” (The Regents of The University of California, priority 2022, published 2024)

System: high-risk stage II and III early breast cancer
Experiment: I-SPY2 neoadjuvant platform trial: pCR rate by arm within receptor or response-predictive subtype
Format: in vivo, women
Text: I-SPY2 is an ongoing, open-label, adaptive, randomized phase II, multicenter trial of neoadjuvant therapy for early-stage breast cancer (NCT01042379; IND 105139). It is a platform trial evaluating multiple investigational arms in parallel against a common standard of care control arm. The primary endpoint is pCR (ypT0/is, ypN0), defined as the absence of invasive cancer in the breast and regional nodes at the time of surgery. As I-SPY2 is modified intent-to-treat, patients receiving any dose of study therapy are considered evaluable; those who switch to non-protocol therapy, progress, forgo surgery, or withdraw are deemed ‘non-pCR’. Secondary endpoints include residual cancer burden (RCB) and event-free and distant relapse-free survival (EFS and DRFS) (Symmans et al., 2007)
Assessments at screening establish eligibility and classify participants into subtypes defined by hormone receptor (HR) status, HER2, and 70-gene signature (MammaPrint®) status (Cardoso et al., 2016; Piccart et al., 2021). Adaptive randomization in I-SPY2 preferentially assigns patients to trial arms according to continuously updated Bayesian probabilities of pCR rates within each biomarker signature; 20% of patients are randomly assigned to the control arm (Berry, 2011). […] An arm can be dropped for futility if the predicted probability of success in a future 300-patient, 1:1 randomized, phase 3 trial drops below 10%, or graduate for efficacy if the probability of success reaches 85% or greater in any biomarker signature. The clinical control arm for the efficacy analysis uses patients randomized throughout the entire trial. […] During the design of each new experimental arm the investigators together with the pharmaceutical sponsor decide in which of the 10 a priori defined biomarker signatures the drug will be tested. Upon entry to the trial, participants are dichotomized into hormone receptor (HR) negative versus positive, HER2 positive versus negative, and MammaPrint High1 [MP1] versus High2 [MP2] status.
This correlative study involved 987 women with high-risk stage II and III early breast cancer who were enrolled in 10 arms of I-SPY2: the first 9 experimental arms that completed evaluation and the control arm as shown in the schema of FIG. 1A. […] For HER2+ patients, N was administered instead of H, whereas M and trebananib were administered in addition to H. Dose reductions and toxicity management were specified in the protocol. Adverse events were collected according to the NCI Common Terminology Criteria for Adverse Events (CTCAE) version 4.0. After completion of AC, patients underwent lumpectomy or mastectomy and nodal sampling, with choice of surgery at the discretion of the treating surgeon. Detailed descriptions of the design, eligibility, and efficacy of these 9 experimental arms of the I-SPY2 trial have been reported previously (Chien et al., 2019; Clark et al., 2021; Nanda et al., 2020; Park et al., 2016; Pusztai et al., 2021; Rugo et al., 2016).
A major goal of a response-predictive schema is to increase the pCR rate in the population and to maximize the probability of pCR for an individual patient (R2).

Work on `NC1(c2ccc(-c3nc4ccn5c(=O)[nH]nc5c4cc3-c3ccccc3)cc2)CCC1` [MK2206, 8-[4-(1-aminocyclobutyl)phenyl]-9-phenyl-2H-[1,2,4]triazolo[3,4-f][1,6]naphthyridin-3-one] yielded a pCR rate (HER2+/BP-HER2 or BP-Basal patients (RPS-5)) of 48%, a pCR rate (HER2+/BP-Luminal class (RPS-5)) of 60% and a pCR rate (HER2-/Immune-/DRD- (RPS-5)) of 20%. It also gave a pCR rate (RPS-7 S2: HER2+/BP Luminal) of 60%, a pCR rate (RPS-7 S6: HER2=0/Immune-/DRD-) of 20% and a pCR rate (RPS-7 S7: HR+HER2low/Immune-DRD-) of 20%.

`CCOc1cc2ncc(C#N)c(Nc3ccc(OCc4ccccn4)c(Cl)c3)c2cc1NC(=O)/C=C/CN(C)C` [N, neratinib] gave a pCR rate (RPS-7 S6: HER2=0/Immune-/DRD-) of 20%.

ganitumab gave a pCR rate (RPS-7 S4: HR-/HER2low/Immune-/DRD-) of 40%.

For pembrolizumab, the pCR rate (HER2-/Immune+ (RPS-5)) was 79%, the pCR rate (HR+HER2- receptor subtype) was 30% and the pCR rate (RPS-7 S3: HER2=0.or.low/Immune+) was 79%. For the same molecule, the pCR rate (TN receptor subtype) was 66%, the pCR rate (TN, Immune+ patients) was 89% and the pCR rate (TN, Immune+/DRD+ class) was 92%. It also gave a pCR rate (TN, Immune+/DRD- class) of 80% and a pCR rate (TN, Immune-/DRD+ class) of 33%.

For pertuzumab, the pCR rate (HER2+/BP-Luminal class (RPS-5)) was 8%.

In the case of veliparib/carboplatin [VC], the pCR rate (HER2-/Immune-/DRD+ (RPS-5)) is reported as 60%, the pCR rate (RPS-7 S5: HER2=0.or.low/Immune-/DRD+) is reported as 60% and the pCR rate (TN, DRD+ patients) is reported as 75%. For the same molecule, the pCR rate (TN, Immune+/DRD+ class) was 74% and the pCR rate (TN, Immune-/DRD+ class) was 80%.
